What was measured:
Conditions in all cases: 48 h
SEM cells [1] = assay: AUC of viability dose-response curve (% viability x log10 dose units); higher = less sensitive
Method in brief: (§1)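 Over 48 h at 37°C, leukemia cells in 1536-well plates (500 or 1000 cells/well), adapted to each medium, received library compounds in DMSO at 11 threefold doses from 47 μM to 0.79 nM. CellTiter-Glo One luminescence, normalised per plate to DMSO and cell-free wells, was fitted by a four-parameter log-logistic function of log10 dose. The area under the curve was then integrated by trapezoidal rule, after scaling curves above full viability and removing those that failed quality control.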

NOMO1 = assay: as above
Method in brief: as §1

P12-Ichikawa = assay: as above
Method in brief: as §1

SEM cells [2] = assay: cell viability relative to DMSO control; higher = less cytotoxic
Method in brief: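 Viability was expressed as a per-plate percentage of DMSO wells, with cell-free wells as background. Leukemia cells (NOMO1 or SEM at 500 cells/well, P12-Ichikawa at 1000 cells/well) were adapted for at least four passages in each medium and seeded in 1536-well plates (5 μl). Library compounds in DMSO were pin-dosed over an 11-point threefold series from 47 μM to 0.79 nM, and CellTiter-Glo One luminescence was read after 48 h at 37°C.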

CC(C)c1cccc(C(C)C)c1O
AUC of viability dose-response curve
Conditions | NOMO1 | P12-Ichikawa | SEM cells [1]
HPLM + 10% dialyzed FBS | 463 | 453 | 453
RPMI 5 mM glucose + 10% FBS | 453 | 463 | 459
RPMI 5 mM glucose + 10% dialyzed FBS | 455 | 447 | 469

FC1=CC2=C3[N](CCN(CC3=C1)C(=O)N4CCCCC4)C=C2C/5=C(C(=O)NC5=O)\C6=CN=C7C=CC=C[N]67
SEM cells [2], HPLM + 10% dialyzed FBS
Conditions | cell viability [%]
0.000781 µM | 104
0.00234 µM | 109
0.00702 µM | 118
0.0211 µM | 57
0.0632 µM | 11.5
0.19 µM | 9.31
0.569 µM | 8.55
1.71 µM | 10.7
5.12 µM | 8.69
15.4 µM | 5.56
46.1 µM | 6.04

AUC of viability dose-response curve
Conditions | NOMO1 | P12-Ichikawa | SEM cells [1]
HPLM + 10% dialyzed FBS | 461 | 329 | 168
RPMI 5 mM glucose + 10% FBS | 469 | 298 | 159
RPMI 5 mM glucose + 10% dialyzed FBS | 463 | 367 | 159

CCc1cnn2c(NCc3ccc[n+]([O-])c3)cc(N3CCCC[C@H]3CCO)nc12
AUC of viability dose-response curve
Conditions | NOMO1 | P12-Ichikawa | SEM cells [1]
HPLM + 10% dialyzed FBS | 224 | 236 | 206
RPMI 5 mM glucose + 10% FBS | 231 | 230 | 193
RPMI 5 mM glucose + 10% dialyzed FBS | 223 | 234 | 198

CC1(C)[C@H](C(=O)O)N2C(=O)C[C@H]2[S+]1(=O)[O-]
AUC of viability dose-response curve
Conditions | NOMO1 | P12-Ichikawa | SEM cells [1]
HPLM + 10% dialyzed FBS | 396 | 468 | 472
RPMI 5 mM glucose + 10% FBS | 411 | 470 | 468
RPMI 5 mM glucose + 10% dialyzed FBS | 420 | 469 | 472

COc1cccc2c1C(=O)c1c(O)c3c(c(O)c1C2=O)C[C@@](O)(C(=O)CO)C[C@@H]3O[C@H]1C[C@H](N)[C@@H](O)[C@H](C)O1
AUC of viability dose-response curve
Conditions | NOMO1 | P12-Ichikawa | SEM cells [1]
HPLM + 10% dialyzed FBS | 369 | 364 | 359
RPMI 5 mM glucose + 10% FBS | 362 | 359 | 309
RPMI 5 mM glucose + 10% dialyzed FBS | 365 | 363 | 327

Clc1ccc(C(Cn2ccnc2)OCc2c(Cl)cccc2Cl)c(Cl)c1 (stereo unspecified)
SEM cells [2], HPLM + 10% dialyzed FBS
Conditions | cell viability [%]
0.000781 µM | 109
0.00234 µM | 105
0.00702 µM | 121
0.0211 µM | 107
0.0632 µM | 117
0.19 µM | 125
0.569 µM | 130
1.71 µM | 117
5.12 µM | 121
15.4 µM | 114
46.1 µM | 117

AUC of viability dose-response curve
Conditions | NOMO1 | P12-Ichikawa | SEM cells [1]
HPLM + 10% dialyzed FBS | 466 | 474 | 462
RPMI 5 mM glucose + 10% FBS | 468 | 466 | 471
RPMI 5 mM glucose + 10% dialyzed FBS | 468 | 468 | 467

COc1nc(N)nc2c1ncn2[C@@H]1O[C@H](CO)[C@@H](O)[C@@H]1O
AUC of viability dose-response curve
Conditions | NOMO1 | P12-Ichikawa | SEM cells [1]
HPLM + 10% dialyzed FBS | 458 | 455 | 472
RPMI 5 mM glucose + 10% FBS | 444 | 462 | 449
RPMI 5 mM glucose + 10% dialyzed FBS | 448 | 456 | 463

COC1=CC(=CC(=C1)C2=CC=C3N=CC\4=C(N(C(=O)\C=C4)C5=CC(=C(C=C5)N6CCNCC6)C(F)(F)F)C3=C2)OC
AUC of viability dose-response curve
Conditions | NOMO1 | P12-Ichikawa | SEM cells [1]
HPLM + 10% dialyzed FBS | 387 | 440 | 406
RPMI 5 mM glucose + 10% FBS | 456 | 407 | 414
RPMI 5 mM glucose + 10% dialyzed FBS | 436 | 412 | 413

COc1ccc([S+](=O)([O-])Nc2cc(-c3c(O)ccc4ccccc34)c(O)c3ccccc23)cc1
cell viability [%], SEM cells [2]
Conditions | HPLM + 10% dialyzed FBS | RPMI 5 mM glucose + 10% FBS
0.000781 µM | 96.8 | 114
0.00234 µM | 111 | 115
0.00702 µM | 134 | 124
0.0211 µM | 115 | 131
0.0632 µM | 101 | 119
0.19 µM | 116 | 127
0.569 µM | 101 | 115
1.71 µM | 97 | 88.7
5.12 µM | 86.4 | 78.6
15.4 µM | 43.4 | 18.4
46.1 µM | 6.74 | 5.19

AUC of viability dose-response curve
Conditions | NOMO1 | P12-Ichikawa | SEM cells [1]
HPLM + 10% dialyzed FBS | 435 | 429 | 408
RPMI 5 mM glucose + 10% FBS | 453 | 439 | 383
RPMI 5 mM glucose + 10% dialyzed FBS | 462 | 432 | 389

CC1Cc2ccccc2N1NC(=O)c1ccc(Cl)c([S+](N)(=O)[O-])c1 (stereo unspecified)
cell viability [%], SEM cells [2]
Conditions | HPLM + 10% dialyzed FBS | RPMI 5 mM glucose + 10% dialyzed FBS
0.000781 µM | 111 | 107
0.00234 µM | 108 | 109
0.00702 µM | 104 | 117
0.0211 µM | 106 | 106
0.0632 µM | 94.3 | 102
0.19 µM | 113 | 134
0.569 µM | 128 | 100
1.71 µM | 103 | 97
5.12 µM | 112 | 113
15.4 µM | 116 | 111
46.1 µM | 97.9 | 107

AUC of viability dose-response curve
Conditions | NOMO1 | P12-Ichikawa | SEM cells [1]
HPLM + 10% dialyzed FBS | 467 | 463 | 474
RPMI 5 mM glucose + 10% FBS | 445 | 473 | 426
RPMI 5 mM glucose + 10% dialyzed FBS | 434 | 452 | 472

N[C@@H]1C[C@H]1c1ccccc1
SEM cells [2], HPLM + 10% dialyzed FBS
Conditions | cell viability [%]
0.000781 µM | 122
0.00234 µM | 115
0.00702 µM | 148
0.0211 µM | 124
0.0632 µM | 107
0.19 µM | 137
0.569 µM | 131
1.71 µM | 119
5.12 µM | 107
15.4 µM | 117
46.1 µM | 109

AUC of viability dose-response curve
Conditions | NOMO1 | P12-Ichikawa | SEM cells [1]
HPLM + 10% dialyzed FBS | 464 | 437 | 449
RPMI 5 mM glucose + 10% FBS | 468 | 462 | 456
RPMI 5 mM glucose + 10% dialyzed FBS | 465 | 459 | 457

CCOc1cc(N2CCC(O)CC2)ccc1Nc1ncc2c(n1)N(C)c1ccccc1C(=O)N2C
SEM cells [2], HPLM + 10% dialyzed FBS
Conditions | cell viability [%]
0.000781 µM | 106
0.00234 µM | 117
0.00702 µM | 133
0.0211 µM | 126
0.0632 µM | 130
0.19 µM | 133
0.569 µM | 139
1.71 µM | 146
5.12 µM | 119
15.4 µM | 94.9
46.1 µM | 7.22

AUC of viability dose-response curve
Conditions | NOMO1 | P12-Ichikawa | SEM cells [1]
HPLM + 10% dialyzed FBS | 321 | 350 | 441
RPMI 5 mM glucose + 10% FBS | 301 | 352 | 421
RPMI 5 mM glucose + 10% dialyzed FBS | 318 | 370 | 428

COC1=CC=C(C=C1)C/2=C(OC3O[C@@H](C)[C@H](O)[C@@H](O)[C@H]3O)/C(=O)C4=C(O2)C(=C(OC5O[C@H](CO)[C@@H](O)[C@H](O)[C@H]5O)C=C4O)CC=C(C)C (stereo partly specified)
SEM cells [2], RPMI 5 mM glucose + 10% dialyzed FBS
Conditions | cell viability [%]
0.000781 µM | 127
0.00234 µM | 123
0.00702 µM | 117
0.0211 µM | 118
0.0632 µM | 126
0.19 µM | 129
0.569 µM | 124
1.71 µM | 114
5.12 µM | 115
15.4 µM | 80.7
46.1 µM | 14.7

AUC of viability dose-response curve
Conditions | NOMO1 | P12-Ichikawa | SEM cells [1]
HPLM + 10% dialyzed FBS | 445 | 456 | 439
RPMI 5 mM glucose + 10% FBS | 457 | 459 | 420
RPMI 5 mM glucose + 10% dialyzed FBS | 462 | 469 | 435
